Measured values as given in US9540299B2, “MTOR-independent activator of TFEB for autophagy enhancement and uses thereof” (Hong Kong Baptist University, priority 2015, dated 2017).

What was measured:
[1] = biological target: T1, MTOR-TFEB-YWHA interaction (Homo sapiens, UniProt P19484); assay: Co-immunoprecipitation of MTOR and YWHA with Flag-TFEB in Hela cells; type: cell-based; details: Hela 3×Flag-TFEB cells, 1 μM, 12 h
T1 construct: expressed in transfected cells; host or cells: HeLa cells stably expressing 3×Flag-TFEB; MTOR and YWHA are endogenous
T1 sequence (P19484 1-476): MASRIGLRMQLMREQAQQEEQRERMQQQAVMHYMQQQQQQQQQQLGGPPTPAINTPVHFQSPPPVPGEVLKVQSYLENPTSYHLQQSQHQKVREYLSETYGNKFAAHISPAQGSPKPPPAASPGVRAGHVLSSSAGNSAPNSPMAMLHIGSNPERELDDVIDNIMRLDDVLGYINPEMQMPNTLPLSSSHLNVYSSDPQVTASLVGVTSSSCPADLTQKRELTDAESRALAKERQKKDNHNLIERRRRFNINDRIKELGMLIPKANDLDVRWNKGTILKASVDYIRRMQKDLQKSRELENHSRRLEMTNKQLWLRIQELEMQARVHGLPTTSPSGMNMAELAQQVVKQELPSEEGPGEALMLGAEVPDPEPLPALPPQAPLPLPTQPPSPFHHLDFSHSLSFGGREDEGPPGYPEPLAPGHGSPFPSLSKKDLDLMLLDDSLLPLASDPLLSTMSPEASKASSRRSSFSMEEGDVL
Protocol: Hela cells stably expressing 3×Flag-TFEB are treated with C1 (1 μM) for 12 h. Endogenous MTOR and YWHA are co-immunoprecipitated with Flag-TFEB. Western blots and levels of immunoprecipitated MTOR (FIG. 5A) and YWHA (FIG. 5B) normalized to their corresponding levels in whole cell lysates (WCL). Data are presented as the mean±SD from three independent experiments. *p<0.05 vs. the control. WB—western blot and IP—immunoprecipitation. Cells are lysed on ice in 1× Lysis Buffer (9803, Life Technologies) with complete protease inhibitor mixture (04693124001, Roche Applied Science). Animal tissues are homogenized in nine volumes of ice-cold PBS supplemented with protease inhibitors. Cytosolic and nuclear fractions are isolated using protocols similar to those described previously. Anti-Flag or TFEB antibody is added to the whole cell lysates and Dynabeads® Protein G (10003D, Life Technologies) is used for immunoprecipitation. Proteins are separated by 10-15% SDS-PAGE, transferred, and blotted with the antibodies described. The blots are then incubated with secondary antibodies or the Clean-Blot IP Detection Reagent (21230, Thermo Scientific) at room temperature for 1 h. The protein signals are detected by ECL kit (32106, Pierce) and quantified using ImageJ software. Hela cells stably expressing 3×Flag-TFEB are treated with C1 (1 μM) for 12 h. […]

[2] = rat, in vivo, po
Protocol: All animal care and procedures are approved by the Hong Kong Baptist University Committee on the Use of Human and Animal Subjects in Teaching and Research. Adult male Sprague-Dawley (SD) rats weighted 350-400 g are maintained on ad libitum food and water with a 12-hour light/dark cycle in a controlled environment. For short-term treatment, rats (n=6 per group) are orally administered by gavage with C1 (10 mg/kg and 25 mg/kg per day) or vehicle (1% sodium carbonyl methylcellulose (CMC-Na)) for 24 h. For chronic treatment, C1 (10 mg/kg per day) is given by gavage to rats for 21 days. At the end of each treatment, an additional dosage of C1 is given for 6 h before the rats are killed. Livers and major brain regions dissected are snap-frozen in liquid nitrogen.
The average concentration of C1 in brain tissues is 0.26±0.063 μg/g determined by HPLC after oral administration of C1 (10 mg/kg) for 6 h.
Rats receive oral administration of C1 (10 mg/kg) for 21 days. Another dose of C1 is given for 6 h and the average concentration of C1 in brain tissues is 0.849±0.302 μg/g. Then the autophagy markers in the livers and brains are analyzed. Chronic C1 treatment increases the levels of LC3-II in the livers (FIGS. 11 A and B). […] During the treatment procedure, no changes in body weight or behavior abnormalities are observed.

human P301S tau = assay: Oral treatment of P301S tau transgenic mice: Tau species in brain; type: in vivo; details: immunostaining of brain slices

Structure (SMILES): COc1ccccc1/C=C/C(=O)/C=C/c1ccccc1OC [C1, 1,5-bis(2-methoxyphenyl)penta-1,4-dien-3-one]
- MTOR and YWHA coimmunoprecipitated with Flag-TFEB compared with control [1]: decreased
- levels of endogenous MTOR and YWHA [1]: does not affect
- passage of the blood-brain barrier (BBB) [2]: can pass
- AT8 and PHF1 positive cells in the hippocampus and cortex (human P301S tau): dramatically reduced
